Laboratory results reported in US9439430B2, “Method of controlling resistant harmful plants” (priority 2012, dated 2016).

Test system: AMATA
Assay: Greenhouse test, pre-emergence (PE) soil application
Assay type: in vivo, Amaranthus rudis
Conditions: group (B) compound alone, 20 g of AS/ha
Text: The 1:1 mixture of the two soil types was used specifically for cultivating small-seeded dicotyledonous weed since the standard field soil on its own tends to silt up, which may have an adverse effect on the emergence of small-seeded weeds. The resistances mentioned in the tables were confirmed beforehand in standard monitoring experiments. Nevertheless, the origins examined may have additional, hitherto unconfirmed resistances to various mechanisms of action.
The pots were then cultivated in a greenhouse (12-16 h light, temperature day 20-22° C., night 15-18° C.) until the time of application. The pots were treated at various BBCH stages of the seeds/plants on a laboratory track sprayer with spray liquors comprising the compositions according to the invention, mixtures of the prior art or the individual components. Application of the active compounds or active compound combinations and wetting agents formulated as WG, WP, EC or otherwise was carried out at the appropriate growth stages of the plants. The amount of water used for spray application was 100-600 l/ha. After the treatment, the plants were returned to the greenhouses and fertilized and watered as required. The pots were cultivated in a greenhouse (12-16 h light, temperature day 20-22° C., night 15-18° C.).
3 weeks after the application, the foliar effect was evaluated on a scale of 0-100%:
0%=no noticeable effect compared to untreated plants
100%=full effect compared to untreated plants
The following abbreviations were used: • BBCH the BBCH code provides information about the morphological development stage of a plant. Officially, the abbreviation denotes the Biologische Bundesanstalt, Bundessortenamt and CHemische Industrie [Federal Biological Institute for Agriculture and Forestry, Federal Office for Crop Plant Varieties, Chemical Industry]. The range of BBCH 00-10 denotes the germination stages of the seeds until surface penetration. […]

Row | Structure (SMILES) | effect on AMATA resistant - group B (TSR), C1 (TSR)
1 | CCS(=O)(=O)c1cccnc1S(=O)(=O)NC(=O)Nc1nc(OC)cc(OC)n1 [(B3), rimsulfuron] | 60
2 | COc1cc(OC)nc(NC(=O)NS(=O)(=O)c2cc(NC=O)ccc2C(=O)N(C)C)n1 [(B2), foramsulfuron] | 40
3 | COc1cc(OC)nc(NC(=O)NS(=O)(=O)c2ncccc2C(F)(F)F)n1 [(B1), flazasulfuron] | 60
